How the values were obtained:
recombinant NLRP6 = molecular target: T1, recombinant NLRP6 (Homo sapiens, UniProt P59044); experiment: Biolayer interferometry (BLI) binding of peptides to recombinant NLRP6; conditions: 30 °C, PBS with 0.01% Tween-20
T1 construct: DNA encoding full-length NLRP6 was codon optimized; His (N); MBP (N); made in house; host or cells: E. coli (DE3)
T1 sequence (P59044 1-892): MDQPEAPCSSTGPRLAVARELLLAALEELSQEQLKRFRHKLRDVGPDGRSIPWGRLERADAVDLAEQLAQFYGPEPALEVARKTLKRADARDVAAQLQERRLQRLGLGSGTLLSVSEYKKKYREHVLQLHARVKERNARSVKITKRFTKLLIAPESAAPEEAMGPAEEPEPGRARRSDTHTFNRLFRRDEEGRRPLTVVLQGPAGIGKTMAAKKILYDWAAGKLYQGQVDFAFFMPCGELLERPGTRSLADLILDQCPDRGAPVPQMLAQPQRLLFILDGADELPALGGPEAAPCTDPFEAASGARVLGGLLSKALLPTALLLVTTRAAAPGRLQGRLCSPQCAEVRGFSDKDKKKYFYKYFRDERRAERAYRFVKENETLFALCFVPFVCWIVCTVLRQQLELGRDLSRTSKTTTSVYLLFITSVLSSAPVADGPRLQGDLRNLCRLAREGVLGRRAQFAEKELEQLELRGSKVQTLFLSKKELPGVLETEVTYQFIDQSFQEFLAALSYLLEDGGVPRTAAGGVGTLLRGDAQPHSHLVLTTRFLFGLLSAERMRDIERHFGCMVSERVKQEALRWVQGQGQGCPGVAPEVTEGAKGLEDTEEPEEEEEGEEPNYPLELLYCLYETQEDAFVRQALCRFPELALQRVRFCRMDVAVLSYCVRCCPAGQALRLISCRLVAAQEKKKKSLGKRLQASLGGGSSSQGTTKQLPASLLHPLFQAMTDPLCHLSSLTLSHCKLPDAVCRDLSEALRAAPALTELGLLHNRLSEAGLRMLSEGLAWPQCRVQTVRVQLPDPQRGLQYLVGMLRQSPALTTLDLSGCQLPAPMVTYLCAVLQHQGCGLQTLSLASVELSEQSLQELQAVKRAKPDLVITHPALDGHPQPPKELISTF
Experimental: DNA encoding full-length NLRP6 was codon optimized and chemically synthesized by Genewiz (Soochow, China). The DNA sequence was subcloned into NdeI-XhoI sites of a pDB-His-MBP vector (kindly given by Pro. Chenggui Han, China Agricultural University, Beijing, China). Recombinant NLRP6 protein was expressed and purified following previous reports, with slight modifications. Briefly, the protein was expressed in E. coli (DE3) at 16 °C with 0.5 mM IPTG induction overnight. Then, the protein was purified by Ni affinity and gel filtration chromatography. The p85α WT and p85α mutant sequences were chemically synthesized and subcloned into BamHI-XhoI sites of a pGEX-6P-1 plasmid by GenScript (Nanjing, China). The E. coli (DE3) transformed with the plasmids were grown in LB medium at 37 °C. The culture medium was supplemented with 0.5 mM IPTG followed by incubation at 16 °C for 16–18 h. […] The protein extinction coefficient was calculated by ProtParam, and the protein concentration was determined by the ultraviolet spectrophotometry method.
Eleven α-helical peptides were synthesized (Supplementary Data 7). […] The interaction between the peptides and NLRP6 was determined by BLI using an Octet Red 96 instrument (FortéBio, CA, USA). […] Responses (nanometre shift) were calculated using data that were double reference subtracted using reference wells and nonspecific binding of the biosensor to the analyte. […]

[1] = test system: bovine serum albumin (BSA); experiment: ELISA, binding of HRP-conjugated peptide to BSA (control); conditions: HRP-conjugated peptide on BSA, 1 h, absorbance 450 nm
Experimental: The 96-well plate was coated with bovine serum albumin (BSA) or purified NLRP6. HRP-conjugated PepC or HRP-conjugated Pep9 was incubated with BSA or NLRP6 for 1 h, and the unbound peptide was washed away. The HRP substrate was added, and the absorbance was detected at 450 nm. For the competitive ELISA, the 96-well plate was coated with purified p85α. The binding of NLRP6 to p85α competed with 10 μM PepC or 5 μM, 10 μM, 20 μM Pep9 for 1 h.

SAEGYQYRALYD [Pep1, peptide found on the p85α SH3 domain; selected as the control named PepC]
binding to NLRP6 (in words) (recombinant NLRP6): did not interact with NLRP6
ELISA value ([1]; replicate 1): 0.10
ELISA value ([1]; replicate 2): 0.15
ELISA value ([1]; replicate 3): 0.12

From PMC10539329, “NLRP6 potentiates PI3K/AKT signalling by promoting autophagic degradation of p85α to drive tumorigenesis” (Nature Communications, 2023)
